Measurements reported in patent publication US20240287138A1, “CYCLIC PEPTIDES FOR INHIBITING TNF RECEPTOR 1 ACTIVITY” (Merck Sharp & Dohme LLC, priority 2023, published 2024).
Where two headings read alike, the source gives them in different places. Numbered stars: 1 amine (or outer) side, 2 acyl side, 3 side chain; on linkers, the order of the positions; unused ones are H or OH. Square brackets hold non-standard residues; d marks the D form. Peptide text beside a SMILES is read from it. * marks the point of attachment. Trp(βS-Me,7-OMe) = COc1cccc2c([C@H](C)[C@H](N)C(=O)O)c[nH]c12; dPro(trans-4-NMe3+) = C[N+](C)(C)[C@@H]1CN[C@@H](C(=O)O)C1; Phe(4-SO2NH2) = N[C@@H](Cc1ccc(S(N)(=O)=O)cc1)C(=O)O; Trp(7-CN) = N#Cc1cccc2c(C[C@H](N)C(=O)O)c[nH]c12; Trp(7-Cl) = N[C@@H](Cc1c[nH]c2c(Cl)cccc12)C(=O)O; X62 = O=C(O)c1ccc(C[C@H](N[*:1])C(=O)[*:2])cc1Cl; Ala(pyrimidin-5-yl) = N[C@@H](Cc1cncnc1)C(=O)O; Phe(4-CONH2) = NC(=O)c1ccc(C[C@H](N)C(=O)O)cc1; Phe(4-COOH) = N[C@@H](Cc1ccc(C(=O)O)cc1)C(=O)O; X64 = O=C([C@H](Cc1n[nH]c2ncccc12)N[*:1])[*:2]; Trp(7-aza) = N[C@@H](Cc1c[nH]c2ncccc12)C(=O)O; X52 = C[C@@H](C(=O)[*:2])N(CCC(N)=O)[*:1]; Pip(5R-OH) = O=C(O)[C@@H]1CC[C@@H](O)CN1; X1 = O=C([C@@H]1CC[C@H](N[*:1])C1)[*:2]; X53 = O=C([C@H](Cc1ccncc1F)N[*:1])[*:2]; Pip(4-aza) = O=C(O)[C@@H]1CNCCN1; 4Pal = N[C@@H](Cc1ccncc1)C(=O)O; NMeE = CN[C@@H](CCC(=O)O)C(=O)O; dHyp = O=C(O)[C@H]1C[C@H](O)CN1; αMeS = C[C@](N)(CO)C(=O)O; Carboxymethyl = O=C(O)C*; Nle = CCCC[C@H](N)C(=O)O; Sar = CNCC(=O)O

Tests used:
[1] = molecular target: T1, human soluble TNFR1 (sTNFR1) (Homo sapiens, UniProt P19438); assay: Human sTNFR1-peptide displacement assay (LanthaScreen Eu TR-FRET binding assay)
T1 construct: made in house; host or cells: Sf21 (baculovirus)
T1 sequence (P19438 with tags, fused parts or gaps): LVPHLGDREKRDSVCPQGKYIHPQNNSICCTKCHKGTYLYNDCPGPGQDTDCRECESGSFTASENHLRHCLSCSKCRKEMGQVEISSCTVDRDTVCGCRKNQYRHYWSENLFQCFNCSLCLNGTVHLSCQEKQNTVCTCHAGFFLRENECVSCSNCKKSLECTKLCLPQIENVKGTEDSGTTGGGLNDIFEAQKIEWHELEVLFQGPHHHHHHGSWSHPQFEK
In short: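 Readout is the 665/615 nm TR-FRET ratio (Eu anti-His donor, streptavidin-Alexa647 acceptor), normalized to DMSO and saturating displacer, fit by Morrison-based five-parameter logistic for Kd^app. His-tagged sTNFR1 (1-211) prebound to 100 nM biotinylated peptide SEQ ID NO.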

[2] = molecular target: T2, TNFα-induced NF-κB signal transduction pathway (TNFR1 signaling) in THP-1 cells (Homo sapiens, UniProt P19438); assay: THP-1 Lucia NF-κB reporter cell assay, inhibition of TNFα-induced NF-κB signaling; format: cell-based; conditions: THP-1 NF-κB Lucia reporter cells, 10 ng/mL TNFα, 16-18 h, secreted luciferase; read-out: THP-1 IC50
T2 sequence (P19438 30-455): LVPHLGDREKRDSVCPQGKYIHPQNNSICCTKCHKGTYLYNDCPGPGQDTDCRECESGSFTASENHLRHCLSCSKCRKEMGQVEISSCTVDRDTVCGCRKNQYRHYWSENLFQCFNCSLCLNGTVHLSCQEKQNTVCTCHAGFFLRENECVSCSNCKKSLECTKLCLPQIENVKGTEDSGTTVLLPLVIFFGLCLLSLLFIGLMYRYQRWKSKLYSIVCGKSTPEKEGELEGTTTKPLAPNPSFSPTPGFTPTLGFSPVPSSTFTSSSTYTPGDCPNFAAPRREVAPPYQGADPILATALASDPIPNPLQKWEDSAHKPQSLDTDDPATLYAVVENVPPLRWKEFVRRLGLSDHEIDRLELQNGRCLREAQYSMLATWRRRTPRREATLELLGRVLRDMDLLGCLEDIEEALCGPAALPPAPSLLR
In short: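 Inhibition of TNFR1-driven NF-κB activation was measured as luminescence of secreted reporter luciferase following overnight (16-18 h) stimulation with 10 ng/mL TNFα.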

`CCCC[C@@H]1NC(=O)[C@@H]2CC[C@@H](C2)NC(=O)[C@H]([C@@H](C)c2c[nH]c3c(OC)cccc23)NC(=O)CN(C)C(=O)[C@H](Cc2ccc(C(N)=O)cc2)NC(=O)[C@H](Cc2ccc(C(N)=O)cc2)NC(=O)[C@](C)(CO)NC(=O)[C@H](Cc2c[nH]c3c(C#N)cccc23)NC(=O)[C@H](Cc2ccc(C(=O)O)cc2)NC(=O)[C@H](CC(N)=O)NC(=O)[C@H](C)N(CCC(N)=O)C(=O)[C@H](Cc2c[nH]c3ncccc23)NC(=O)[C@@H]2CC[C@@H](O)CN2C(=O)[C@H](Cc2ccncc2)NC1=O` [SEQ ID NO. 147] (cyclo([4Pal][Pip(5R-OH)][Trp(7-aza)][X52]N[Phe(4-COOH)][Trp(7-CN)][αMeS][Phe(4-CONH2)][Phe(4-CONH2)][Sar][Trp(βS-Me,7-OMe)][X1][Nle])) gave a Kd [1] of 0.21 nM and an IC50 [2] of 1.4 nM.

With `CCCC[C@@H]1NC(=O)[C@@H]2CC[C@@H](C2)NC(=O)[C@H]([C@@H](C)c2c[nH]c3c(OC)cccc23)NC(=O)CN(C)C(=O)[C@H](Cc2ccc(C(=O)O)c(Cl)c2)NC(=O)[C@H](Cc2ccc(C(N)=O)cc2)NC(=O)[C@](C)(CO)NC(=O)[C@H](Cc2c[nH]c3c(C#N)cccc23)NC(=O)[C@H](Cc2ccc(C(=O)O)c(Cl)c2)NC(=O)[C@H](CC(N)=O)NC(=O)[C@H]2C[C@H](O)CN2C(=O)[C@H](Cc2c[nH]c3ccccc23)NC(=O)[C@@H]2CC[C@@H](O)CN2C(=O)[C@H](Cc2ccncc2)NC1=O` [SEQ ID NO. 207] (cyclo([4Pal][Pip(5R-OH)]W[dHyp]N[X62][Trp(7-CN)][αMeS][Phe(4-CONH2)][X62][Sar][Trp(βS-Me,7-OMe)][X1][Nle])) the Kd [1] was 0.12 nM and the IC50 [2] was 1 nM.

Work on `CCCC[C@@H]1NC(=O)[C@@H]2CC[C@@H](C2)NC(=O)[C@H]([C@@H](C)c2c[nH]c3c(OC)cccc23)NC(=O)CN(C)C(=O)[C@H](Cc2ccc(OCC(=O)O)cc2)NC(=O)[C@H](Cc2ccc(S(N)(=O)=O)cc2)NC(=O)[C@](C)(CO)NC(=O)[C@H](Cc2c[nH]c3c(C#N)cccc23)NC(=O)[C@H](Cc2ccc(OCC(=O)O)cc2)NC(=O)[C@H](CC(N)=O)NC(=O)[C@H]2C[C@H](OCC(=O)O)CN2C(=O)[C@H](Cc2n[nH]c3ncccc23)NC(=O)[C@@H]2CC[C@@H](O)CN2C(=O)[C@H](Cc2cncnc2)NC1=O` [SEQ ID NO. 89] (cyclo([X1][Nle][Ala(pyrimidin-5-yl)][Pip(5R-OH)][X64][dHyp](Carboxymethyl)NY(Carboxymethyl)[Trp(7-CN)][αMeS][Phe(4-SO2NH2)]Y(Carboxymethyl)[Sar][Trp(βS-Me,7-OMe)])) yielded a Kd [1] of 0.18 nM and an IC50 [2] of 1.2 nM.

For `CCCC[C@@H]1NC(=O)[C@@H]2CC[C@@H](C2)NC(=O)[C@H]([C@@H](C)c2c[nH]c3c(OC)cccc23)NC(=O)CN(C)C(=O)[C@H](Cc2ccc(OCC(=O)O)cc2)NC(=O)[C@H](Cc2ccc(S(N)(=O)=O)cc2)NC(=O)[C@](C)(CO)NC(=O)[C@H](Cc2c[nH]c3c(C#N)cccc23)NC(=O)[C@H](Cc2ccc(OCC(=O)O)cc2)NC(=O)[C@H](CC(N)=O)NC(=O)[C@H]2C[C@H]([N+](C)(C)C)CN2C(=O)[C@H](Cc2c[nH]c3ncccc23)NC(=O)[C@@H]2CC[C@@H](O)CN2C(=O)[C@H](Cc2ccncc2)NC1=O` [SEQ ID NO. 257] (cyclo([4Pal][Pip(5R-OH)][Trp(7-aza)][dPro(trans-4-NMe3+)]NY(Carboxymethyl)[Trp(7-CN)][αMeS][Phe(4-SO2NH2)]Y(Carboxymethyl)[Sar][Trp(βS-Me,7-OMe)][X1][Nle])), the Kd ([1]; displacement of biotinylated peptide SEQ ID NO. 1 from sTNFR1, 20 point titration, 5-parameter fit based on Morrison equation (tight binding), read-out: TR-FRET Kd^app) was 0.08 nM and the IC50 [2] was 0.4 nM.

`CCCC[C@@H]1NC(=O)[C@@H]2CC[C@@H](C2)NC(=O)[C@H]([C@@H](C)c2c[nH]c3c(OC)cccc23)NC(=O)CN(C)C(=O)[C@H](Cc2ccc(O)cc2)NC(=O)[C@H](Cc2ccc(C(=O)O)cc2)NC(=O)[C@](C)(CO)NC(=O)[C@H](Cc2c[nH]c3c(Cl)cccc23)NC(=O)[C@H](Cc2ccncc2)NC(=O)[C@H](CC(N)=O)NC(=O)[C@H](CCC(=O)O)N(C)C(=O)[C@H](Cc2c[nH]c3ccccc23)NC(=O)[C@@H]2CNCCN2C(=O)[C@H](Cc2ccncc2F)NC1=O` [SEQ ID NO. 201] (cyclo([4Pal][Trp(7-Cl)][αMeS][Phe(4-COOH)]Y[Sar][Trp(βS-Me,7-OMe)][X1][Nle][X53][Pip(4-aza)]W[NMeE]N)) was tested, and the Kd [1] was 0.21 nM and the IC50 [2] was 0.9 nM.
